Reference: US7829309B1, “Cell culture performance with betaine” (Immunex Corporation, priority 2002, dated 2010)
Entries after “also recorded” stand apart in the source; their conditions may differ.

Assays:
[1] = tested on: TNFR-Fc producing cells (CHO cell lines); test: Betaine in 1 L bioreactor cultures of TNFR-Fc producing CHO cells at production osmolality; assay type: cell-based, Chinese hamster
Procedure: TNFR-Fc production in some CHO cell lines results in greater quantities of recombinant protein product but with lower viability than other cell lines during the final days of the run. The decreased viability correlates with increased protease activity in the culture supernatant, a result of dying cells releasing proteases into the media, which decreases stability of the final purified product. The current study was performed to determine if betaine could prolong viability at production osmolality (250-280 mOsm initial value).
The bioreactors used for this study were stirred vessels with a 1 liter working volume, with temperature, pH and dO2 control. The medium was serum-free with bicarbonate, IGF-1 (LongR3; GroPep, Australia), intralipids and peptones added. Betaine was added to 1 L bioreactor cultures of TNFR-Fc producing cells at 0, 10, 20, 30, and 40 mM with the osmolality of each culture adjusted to 270 to 280 mOsm with an appropriate amount of NaCl. The reactors were induced to express recombinant protein on day 2 by reducing the temperature and adding butyrate to 0.5 mM. Daily samples were taken for analysis of metabolic and productivity parameters.
The ability of induced cells to produce TNFR:Fc was not decreased in the presence of betaine.

cell cultures = details: physiological osmolality, 292 mOsm/kg; cited from earlier work

C[N+](C)(C)CC(=O)O [betaine]
cell viability (viable cells as percentage of living cells over total cells, trypan blue exclusion; VCD profiles) ([1]; betaine 0, 10, 20, 30, 40 mM, serum-free medium, osmolality 270 to 280 mOsm, most noticeable after day 5 (FIG. 1)): increases cell viability; also recorded: positive effect on cell viability | concentration dependence of the viability effect ([1]; betaine 10-40 mM, higher concentrations than 30 mM did not increase viability as much): titration effect up to 30 mM | ability of induced cells to produce TNFR:Fc ([1]; in the presence of betaine, induced on day 2 by reduced temperature and 0.5 mM butyrate): not decreased | increase in percentage of secreted recombinant polypeptide having the desired conformation (native conformation and dimerized) ([1]; in the presence of betaine, measured by hydrophobic interaction chromatography (HIC) against known controls): 17.7% | effect on cell culture growth or maximum viable cell concentration (cell cultures): no effect
